Key:
[1] = test system: N2 C. elegans; experiment: Lifespan of N2 C. elegans under regular culture conditions; type: in vivo, Caenorhabditis elegans; conditions: FIG. 2A
Excerpt: In this example, the biological functions of ergothioneine were investigated using (C. elegans as the model system. Using (C. elegans as the model has several prominent advantages, including short life cycle, simple experimental manipulation, and rich collection of publicly available genetic mutants (e.g., Caenorhabditis Genetics Center). In addition, its genome comprises 2/3 of human disease-related genes.
To test the biological effect of ergothioneine, the first set of experiments was to test the toxicity level of ergothioneine on the worm model. In humans, ergothioneine is enriched up to 2 mM concentration in many parts of the body.
(§1) At 150 μM, the lifespan of the wild type worm can be extended by 30-40% (FIG. 2A). Over the last two decades, there is numerous evidence supporting the life-extension effect by caloric restriction from various model systems (yeast, worm, fly, and mouse). Thus, the effect of ergothioneine on worm Eat-2 mutant was also examined.

[2] = test system: worm Eat-2 mutant; experiment: Lifespan of worm Eat-2 mutant (caloric restriction model); type: in vivo, Caenorhabditis elegans; conditions: FIG. 2B
Experimental: as §1

[3] = test system: N2 worms; experiment: Paraquat-induced oxidative stress in N2 worms; type: in vivo, Caenorhabditis elegans; conditions: FIG. 2C
Experimental: Encouraged by the clear life-extension effect on worm model under regular culture conditions in the above example, the protective effect of ergothioneine under stresses was examined. In the first experiment, the worm was treated with paraquat to induce oxidative stress. Under the paraquat-induced oxidative stress conditions, N2 worms' life span was decreased by nearly 50% (FIG. 2C vs. FIG. 2A).

[4] = test system: N2 worm; experiment: Heat shock survival of N2 worms; type: in vivo, Caenorhabditis elegans; conditions: moved from 20° C. to 42° C.; a few hundred micromolar; without compound 3 hours; FIG. 2D
Experimental: Besides the oxidative stress, the protective effect of ergothioneine for the worm under heat shock conditions was also examined. After the worms were cultured multiple days, they were then moved from 20° C. to 42° C. Under such a heat-shock condition, 50% of the worm died within 3 hours. However, in the presence of a few hundred micromolar concentration of ergothioneine, it extends N2 worm's average survival time from 3 hours to nearly 8-9 hours (FIG. 2D). Therefore, besides its life-extension effects under regular culture conditions, ergothioneine clearly offers protective effects to worms under oxidative stress and heat shock conditions.

[5] = test system: daf-16 mutant worm; experiment: Lifespan of daf-16 mutant worm; type: in vivo, Caenorhabditis elegans; conditions: FIG. 3A
Excerpt: To address this issue, the large collection of C. elegans mutants in Caenorhabditis Genetics Center was again utilized in this example. Among the mutants examined, the daf-16 mutant results stood out (FIGS. 3A, 3B, and 3C). […] Among genes of the IIS pathway, daf-2 encodes an insulin-like receptor, and it is the starting point of the pathway that eventually leads to daf-16. Daf-16 is the hub, where information from several different pathways merge and then use to regulate many physiological processes. Worm daf-16 mutant has an average life-span that is […] the N2 worm (FIGS. 3A, 3B, and 3C; FIGS. 4-6).

[6] = test system: accelerated ageing mouse model; experiment: Accelerated ageing mouse model; type: in vivo
Excerpt: FIGS. 5A, 5B, 5C, and 5D show the animal study in rats (FIG. 5A: untreated disease group; FIG. 5B treated disease group).
Another aspect provides a method of treating a subject diagnosed to have a premature ageing disease or condition, comprising treating the subject with a therapeutically effective amount of compound I. In some embodiments, the premature ageing disease is Hutchinson-Gilford progeria syndrome. In some embodiments, the premature ageing disease is Werner syndrome. In some embodiments, the premature ageing disease or condition is premature ageing of skin, mucous membranes, scalp and/or hair of the subject. In some embodiments, the method may further include a step of identifying or determining the subject as having premature ageing disease or condition. Procedures of the determination step for premature ageing disease or condition are generally known in the field. As shown in the example section and FIGS. 4-6, the study (accelerated ageing mouse model) analyzed the physical appearance and activities of two groups (with and without the feeding of Compound I, 20 mg/kg daily) over the period of about 1 year.

[7] = test system: primary cortical neuron culture; experiment: Oxygen glucose deprivation of primary cortical neuron culture; type: cell-based; conditions: FIG. 5D
[8] = test system: stroke middle cerebral artery occlusion (MCAO) model; experiment: Stroke middle cerebral artery occlusion (MCAO) model; type: in vivo; conditions: MCAO mice, vs vehicle
Excerpt: FIGS. 7A, 7B, 7C, and 7D show the protective effect of ergothioneine on stroke MCAO model (images of tissue sample (FIG. 7A), infarct volume (FIG. 7B), neurological deficit (FIG. 7C), and cerebral blood flow (CBF) (FIG. 7D) of Sham, vehicle, and ergothioneine treated mice).
The MCAO model is a stroke model that uses mice and rats. The model involves inserting a surgical filament into the external carotid artery and threading it into the internal carotid artery. The filament is inserted to block blood flow for a set period of time, usually 30-120 minutes. The filament is then removed to allow reperfusion, resulting in an ischemic stroke. A sham mouse is a control animal used in […]. Sham procedures are performed on a control group participant to ensure they experience the same effects as those who receive a true operation.
As shown, ergothioneine reduces the infarct size by at least 50%. […] As shown, ergothioneine reduces neurological deficit by at least 40%. […] As shown, ergothioneine […] cerebral blood flow by at least 60%.

[9] = test system: pancreatic/renal kallikrein (Klk1) related Kallikrein system; experiment: RNA-seq analysis of peri-infarct area of the MCAO model; type: in vivo, mice; conditions: FIG. 8
Excerpt: FIGS. 8A and 8B that the results of RNA-seq analysis of peri-infarct area of the MCAO model.
KLK1 is a key protein in the Kallikrein-Kinin system (KKS). The KKS promotes local blood flow and vasodilation, and may also reduce inflammation and oxidative stress. KLK1 is a serine protease that plays a critical role in regulating blood pressure, blood flow, and microcirculation. It's a secretory product of the salivary glands and the pancreas, and is also found in the kidney. KLK1 has a major function of reducing blood pressure by releasing the peptide hormone Lys-bradykinin (kallidin) from low molecular weight kininogen. This affects muscle relaxation and inflammatory processes. KLK1 also has anti-inflammatory, anti-apoptotic, anti-fibrotic, and anti-oxidative actions.

[10] = through transporter OCTN1; humans; cited from earlier work
[11] = in vivo; cited from earlier work
[12] = test system: adhesion molecules VACM-1, ICAM-1, and E-selectin; conditions: cited from earlier work
[13] = 20 mg/kg daily feeding, about 1 year, treated vs untreated group
[14] = mice, compared to untreated mice, FIG. 5C

C[N+](C)(C)[C@@H](Cc1c[nH]c(=S)[nH]1)C(=O)O [ergothioneine, Ergothioneine]
life-extension effect ([1]; 50 μM, N2 C. elegans): robust life-extension effect
lifespan extension ([1]; 150 μM, wild type worm): 30-40%
life extension of Eat-2 worm mutant [2]: can further extend the life
protective effect under oxidative stress [3]: clearly offers protective effects and alleviates the detrimental effects of oxidative stress
average survival time under heat shock [4]: 8 to 9 h
life-extension effect in daf-16 mutant [5]: the life-extension effect was abolished
effect on the ageing process ([6]; 20 mg/kg daily feeding, about 1 year): could effectively slow down the ageing process
average weight [6, 13]: higher average weight
skin condition [6, 13]: more smooth skin condition
physical activity of the untreated group relative to the treated group ([6]; 20 mg/kg daily feeding, about 1 year, words describe the group without treatment): less active physically
extension of maximum lifespan [6, 14]: at least 30%
extension of median lifespan [6, 14]: at least 40%
cell death caused by oxygen glucose deprivation [7]: reverses cell death
reduction of infarct size ([8]; FIG. 7B): at least 50%
reduction of neurological deficit ([8]; FIG. 7C): at least 40%
reduction of cerebral blood flow (CBF) ([8]; FIG. 7D): at least 60%
regulation of Klk1 related Kallikrein system (RNA level) [9]: up-regulate
concentration accumulated in many parts of the body [10]: up to 2 mM
blood-brain barrier passage [11]: can pass through the blood-brain barrier
expression of adhesion molecules VACM-1, ICAM-1, and E-selectin [12]: decreases the expression

— patent publication US20240374572A1, “METHODS FOR EXTENDING THE LIFESPAN OF CELLS AND ORGANISMS” (priority 2021, published 2024)
